The text below walks through data of patent US20140294856A1, “COMBINATION TREATMENT COMPRISING A HDAC6 INHIBITOR AND AN AKT INHIBITOR” (priority 2011, published 2014).

One series concerns the target T1, ABCG2 (Homo sapiens, UniProt Q9UNQ0).
T1 sequence (Q9UNQ0 1-655): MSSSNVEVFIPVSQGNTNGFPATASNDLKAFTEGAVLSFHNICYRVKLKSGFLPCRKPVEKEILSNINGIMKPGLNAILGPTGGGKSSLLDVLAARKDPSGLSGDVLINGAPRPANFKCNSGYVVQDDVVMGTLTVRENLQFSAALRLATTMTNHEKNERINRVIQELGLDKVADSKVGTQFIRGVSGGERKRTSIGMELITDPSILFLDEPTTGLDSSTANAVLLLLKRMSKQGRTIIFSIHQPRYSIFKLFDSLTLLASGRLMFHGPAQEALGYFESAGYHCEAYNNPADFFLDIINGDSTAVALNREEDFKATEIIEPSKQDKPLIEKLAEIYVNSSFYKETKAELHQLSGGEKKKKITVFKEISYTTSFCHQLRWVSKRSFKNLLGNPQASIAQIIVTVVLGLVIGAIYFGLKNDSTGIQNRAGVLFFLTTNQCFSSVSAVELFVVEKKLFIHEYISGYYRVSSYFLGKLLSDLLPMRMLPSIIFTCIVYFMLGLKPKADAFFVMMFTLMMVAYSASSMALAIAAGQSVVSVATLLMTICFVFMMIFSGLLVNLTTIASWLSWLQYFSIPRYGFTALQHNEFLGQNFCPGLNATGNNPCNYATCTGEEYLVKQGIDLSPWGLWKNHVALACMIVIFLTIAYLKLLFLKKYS

Series [1] concerns HCT116 cells. Put plainly: Combination studies, SRB assay, combination index (CalcuSyn). In kind it is cell-based, human.
Series [2] deals with CHO cells deficient in DNA repair. As to the kind of experiment: Growth inhibition in cell lines deficient in DNA repair machinery. In kind it is cell-based.
Another series concerns A549 cells. As to the kind of experiment: Impact of BSO (GSH depletion) on growth inhibition, SRB assay. The following applies: 10 μM BSO for 24 hours. In kind it is cell-based. (In general: Sulforhodamine B stains cellular protein and so reports cell mass.)
The subject of series [3] is HCT116 human colon cancer xenograft. Particulars: BEZ-235 alone 20 mg/kg/d.
The subject of series [4] is HCT116 cells. Put plainly: Phospho-AKT levels by western blotting. In kind it is cell-based, human. Particulars: for IC50: Homo sapiens, HCT-116. (In general: Immunoblotting shows a protein as a band on a membrane.)
The next series concerns HCT116 tumours. Put plainly: Phospho-AKT levels in HCT116 tumours. Format: in vivo, mice. The following applies: single injection 25 mg/kg.
Series [5] deals with HCT116 cells. Put plainly: Acetylated PTEN and PTEN expression. Format: cell-based, human. As for the experimental part: FIG. 12. HDAC-C1A treatment is associated with an increase of phopsho-AKT that can be reversed by PI3K/AKT/mTOR inhibitors. […] Similarly, Phospho-Pras 40 seems to increase following treatment with HDAC-C1A. Densitometry data could reinforce this statement (ratio between the total form and the Phospho form of Pras40 that decreases at 24 hours). […] No difference could be seen in endometrial cancer cell line, […]. C. […] E. BEZ-235 can fully reverse the increase of Phospho-AKT mediated by HDAC-C1A in HCT-116 cells. BEZ-235 and HDAC-C1A were co-incubated at the indicated time and concentrations.
FIG. 17. A. Dose and time impact of Tubastatin A on acetylated form of tubulin and histones H3 and H4 and on phospho-AKT levels that could be reversed with BEZ-235 in HCT-116 cells. […] HCT116 were immunoprecipitation with PTEN and stained with HDAC1 or HDAC6, immunoprecipitation with HDAC6 and stained with PTEN. No HDAC1 could have been detected in contrast with HDAC6. There was no effect of the different inhibitors on the different protein levels.
PTEN protein expression was not altered. In vivo, on the gene array, the mRNA levels of PTEN were not altered in HCT116 xenograft model following treatment with HDAC-C1A after 1 and 14 days when compared with vehicle treated group (FIG. 7).
We have shown that HDAC-C1A is associated with increased acetylation of α-tubulin, acetyl HSP90 and acetyl PTEN with only a minor effect on the regulation of the genes (less than 0.7% of the genes have been de-regulated after 14 days of treatment in vivo). We believe that the acetylation of PTEN, via the inhibition of HDAC6, leads to an increase of P-AKT. […] No effect of BEZ235 could be seen on the acetylated status of α-tubulin and histones H3 and H4.

Series [6] is described as follows: Cytotoxicity of compounds of the invention (data not shown). Format: cell-based. From the text: HDAC-C1B also appears to be a promising drug candidate.
A further series concerns the target P-gp (Homo sapiens, UniProt P08183). The following applies: mouse.
The nature of a further series: in vitro. Particulars: human, Caco-2.
For another series, the system named is A2780 cells. Put plainly: Impact of glutathione co-incubation on survival. Particulars: compound 1 μM.
Another series deals with MRP1 (Homo sapiens, UniProt P33527). Put plainly: Impact of MRP1 on cytotoxicity, MK-571 pre-treatment in A549 cells.
Series [7] relates to HCT116 cells. As to the kind of experiment: Acetylation biomarkers by western blotting (with washout). In kind it is cell-based, human. As for the experimental part:
FIG. 1. HDAC-C1A irreversible activity. A. […] inhibitory activity of HDAC-C1A was tested using HeLa nuclear extracts and compared to the negative (reversible) control HDAC-C1B. B Growth inhibitory effect of the different compounds in HCT-116 cells at indicated time and compared to growth inhibitory after 72 hours of incubation.
HSP90 protein expression was not altered (FIG. 2).

[8] abbreviates: homologous recombination repair.

SMILES strings stand for the structures. Where two headings read alike, the source gives them in different places.

Chain of P-gp (P08183 whole entry): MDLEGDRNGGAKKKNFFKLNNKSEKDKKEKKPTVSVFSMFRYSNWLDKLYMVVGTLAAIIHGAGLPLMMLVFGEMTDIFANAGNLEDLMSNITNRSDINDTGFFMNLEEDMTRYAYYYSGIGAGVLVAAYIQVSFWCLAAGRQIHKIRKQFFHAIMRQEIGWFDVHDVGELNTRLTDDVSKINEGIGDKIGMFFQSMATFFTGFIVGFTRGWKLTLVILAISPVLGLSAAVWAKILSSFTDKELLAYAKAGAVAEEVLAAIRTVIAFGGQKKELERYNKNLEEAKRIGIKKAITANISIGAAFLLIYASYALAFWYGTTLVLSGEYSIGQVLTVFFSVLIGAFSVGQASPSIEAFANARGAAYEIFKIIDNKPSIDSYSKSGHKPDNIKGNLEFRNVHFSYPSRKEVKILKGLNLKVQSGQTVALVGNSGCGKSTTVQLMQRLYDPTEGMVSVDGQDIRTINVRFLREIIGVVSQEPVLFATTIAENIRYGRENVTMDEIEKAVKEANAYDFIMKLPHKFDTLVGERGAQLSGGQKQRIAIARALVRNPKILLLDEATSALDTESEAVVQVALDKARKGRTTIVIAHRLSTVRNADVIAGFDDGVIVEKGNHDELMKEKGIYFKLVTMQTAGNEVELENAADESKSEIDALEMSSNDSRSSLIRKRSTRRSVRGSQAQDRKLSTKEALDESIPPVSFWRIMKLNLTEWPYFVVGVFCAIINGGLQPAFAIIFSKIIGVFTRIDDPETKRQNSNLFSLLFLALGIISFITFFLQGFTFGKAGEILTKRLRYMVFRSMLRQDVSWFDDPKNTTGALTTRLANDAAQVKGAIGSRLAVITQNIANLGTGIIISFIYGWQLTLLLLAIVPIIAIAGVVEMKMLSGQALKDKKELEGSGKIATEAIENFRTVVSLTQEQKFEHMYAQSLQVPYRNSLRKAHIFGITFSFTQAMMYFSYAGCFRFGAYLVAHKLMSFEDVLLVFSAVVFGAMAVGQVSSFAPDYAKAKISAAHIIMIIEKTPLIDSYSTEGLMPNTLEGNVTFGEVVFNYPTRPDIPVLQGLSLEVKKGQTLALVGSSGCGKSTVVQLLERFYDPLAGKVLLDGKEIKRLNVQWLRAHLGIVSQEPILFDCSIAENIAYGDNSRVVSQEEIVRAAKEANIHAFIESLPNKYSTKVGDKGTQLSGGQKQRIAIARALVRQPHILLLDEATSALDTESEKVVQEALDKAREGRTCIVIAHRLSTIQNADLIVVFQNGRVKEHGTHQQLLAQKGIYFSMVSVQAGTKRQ
Chain of MRP1 (P33527 whole entry): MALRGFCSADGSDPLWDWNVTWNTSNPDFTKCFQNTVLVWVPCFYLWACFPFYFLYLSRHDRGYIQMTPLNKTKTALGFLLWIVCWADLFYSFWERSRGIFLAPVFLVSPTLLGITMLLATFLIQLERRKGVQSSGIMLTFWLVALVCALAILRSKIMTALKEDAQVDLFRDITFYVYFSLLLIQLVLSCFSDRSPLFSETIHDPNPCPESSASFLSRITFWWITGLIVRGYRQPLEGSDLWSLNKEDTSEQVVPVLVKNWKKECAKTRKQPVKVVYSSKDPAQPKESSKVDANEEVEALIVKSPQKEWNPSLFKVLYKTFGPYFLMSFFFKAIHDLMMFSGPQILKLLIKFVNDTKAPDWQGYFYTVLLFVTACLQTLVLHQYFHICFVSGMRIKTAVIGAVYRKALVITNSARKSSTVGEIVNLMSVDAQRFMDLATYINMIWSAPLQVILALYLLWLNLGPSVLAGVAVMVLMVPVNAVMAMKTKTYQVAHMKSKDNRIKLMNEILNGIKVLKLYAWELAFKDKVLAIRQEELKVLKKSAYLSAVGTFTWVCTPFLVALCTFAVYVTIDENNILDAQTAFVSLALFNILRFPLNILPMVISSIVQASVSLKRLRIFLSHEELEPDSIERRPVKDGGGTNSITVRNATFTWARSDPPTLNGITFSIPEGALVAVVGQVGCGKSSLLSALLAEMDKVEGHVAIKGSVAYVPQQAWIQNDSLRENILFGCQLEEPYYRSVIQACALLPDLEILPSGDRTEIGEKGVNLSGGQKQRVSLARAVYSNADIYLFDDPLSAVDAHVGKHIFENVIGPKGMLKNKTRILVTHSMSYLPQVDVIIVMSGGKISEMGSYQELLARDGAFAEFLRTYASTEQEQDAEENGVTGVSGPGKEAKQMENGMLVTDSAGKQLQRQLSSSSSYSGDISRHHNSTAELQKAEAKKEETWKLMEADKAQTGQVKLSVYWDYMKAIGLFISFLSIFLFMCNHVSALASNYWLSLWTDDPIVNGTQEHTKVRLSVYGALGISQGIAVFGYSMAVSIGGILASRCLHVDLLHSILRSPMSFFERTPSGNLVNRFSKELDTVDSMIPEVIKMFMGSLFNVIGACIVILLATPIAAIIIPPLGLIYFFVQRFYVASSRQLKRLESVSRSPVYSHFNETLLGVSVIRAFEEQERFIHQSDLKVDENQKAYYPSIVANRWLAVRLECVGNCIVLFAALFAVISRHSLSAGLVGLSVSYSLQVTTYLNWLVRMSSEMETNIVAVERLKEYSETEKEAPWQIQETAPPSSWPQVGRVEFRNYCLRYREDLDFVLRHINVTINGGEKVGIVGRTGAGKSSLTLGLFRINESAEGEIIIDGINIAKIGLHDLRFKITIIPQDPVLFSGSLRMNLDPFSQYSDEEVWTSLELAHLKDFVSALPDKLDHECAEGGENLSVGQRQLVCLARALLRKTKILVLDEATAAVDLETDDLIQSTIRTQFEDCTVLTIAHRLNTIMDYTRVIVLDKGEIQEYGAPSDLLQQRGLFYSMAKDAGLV
Procedure for MRP1: The impact of ABC transporters on the cytotoxicity of HDAC-C1A was assessed using cell lines with differential expression of the ABC transporters and by using inhibitors.

Turning to `O=C1c2c(O)ccc(O)c2C(=O)c2c(NCCNCCO)ccc(NCCNCCO)c21` [mitoxantrone], at ABCG2, the “fold resistance (GI50 ratio) MCF7-MX vs parental MCF7” value was 120 fold and the “reversal of resistance by FTC in MCF7-MX cells” value was 70 fold.

In the case of `CC(C)C[C@H](NC(=O)[C@H](Cc1ccccc1)NC(=O)c1cnccn1)B(O)O` [bortezomib], in the series on HCT116 cells [1] (HCT116, 72 hours), the “combination effect with HDAC-C1A on growth inhibition” value is “Synergistic effect”.

Turning to `O=C(O)CCCc1ccc(N(CCCl)CCCl)cc1` [chlorambucil, reference compound], in series [2] (setting [8]), the “sensitivity (GI50 ratio) of cells deficient in XRCC3 vs proficient” value is listed as 7.8 and the “sensitivity (GI50 ratio, fold) of cells deficient in XRCC2 vs proficient” value is over 100. The “sensitivity (GI50 ratio, fold) of cells deficient in XRCC5 vs proficient” value in series [2] (non homologous end joining) was over 100. Also, in series [2] (nucleotide excision repair), the “sensitivity (GI50 ratio) of cells deficient in ERCC1 vs proficient” value is given as over 100. Moreover, the “impact of BSO on growth inhibition (GI50 ratio)” value in the series on A549 cells was 8.5.

With `O=c1[nH]cc(F)c(=O)[nH]1` [5FU], the “combination effect with HDAC-C1A on growth inhibition” value with HCT116 cells [1] (HCT116, 72 hours) is “additive effect”.

The term TGI denotes the reduction of tumour growth relative to the control group. A lower TGI goes with little slowing of growth. One may read the IC50 as the point on the concentration scale where inhibition reaches its midpoint. As for `Cn1c(=O)n(-c2ccc(C(C)(C)C#N)cc2)c2c3cc(-c4cnc5ccccc5c4)ccc3ncc21` [BEZ-235], the TGD2x in series [3] came to 3.4 ± 1.9 days. The compound further registered a TGI in series [3] of 21%. Moreover, the “combination effect with HDAC-C1A on growth inhibition” value in the series on HCT116 cells [1] (HCT116, 72 hours) is reported as “Synergistic effect”. The “P-AKT levels, single agent” value with HCT116 cells [4] is given as “dose dependent decrease”. Moreover, the IC50 with HCT116 cells [4] (4 hours treatment, read-out: IC50 for inhibition of P-AKT) was 10 nM; in the series on HCT116 cells [4] (added to Tubastatin A, read-out: IC50 for reversal of Tubastatin A-induced P-AKT) it was 10 nM; in the series with HCT116 cells [4] (combined with 10 μM HDAC-C1A, read-out: IC50 for P-AKT when combined with HDAC-C1A), 50 nM. In the series with HCT116 cells [4] (added to Tubastatin A), the “effect on acetylated status of α-tubulin and histones H3 and H4” value was “No effect”. The “reversal of the increase of Phospho-AKT mediated by HDAC-C1A” value in the series with HCT116 cells [4] (co-incubated with HDAC-C1A) is on record as “fully reverse”. The P-AKT in tumours result in the series on HCT116 tumours (2 hours after treatment) is recorded as “Persistent inhibition”; in the series with HCT116 tumours (by 30 minutes) it was “rapid down-regulation”; in the series with HCT116 tumours (from 6 hours post treatment), “partial recovery to basal levels”.

For `COc1ccc(C2=N[C@@H](c3ccc(Cl)cc3)[C@@H](c3ccc(Cl)cc3)N2C(=O)N2CCNC(=O)C2)c(OC(C)C)c1` [Nutlin-3], the “combination effect with HDAC-C1A on growth inhibition” value with HCT116 cells [1] (HCT116, 72 hours) is “additive effect”.

On to `CN(C)CC[C@H](CSc1ccccc1)Nc1ccc(S(=O)(=O)NC(=O)c2ccc(N3CCN(Cc4ccccc4-c4ccc(Cl)cc4)CC3)cc2)cc1[N+](=O)[O-]` [ABT-737], for which the “combination effect with HDAC-C1A on growth inhibition” value with HCT116 cells [1] (HCT116, 72 hours) is listed as “Synergistic effect”.

Turning to `CN1CCc2c(c3ccccc3n2Cc2ccc(C(=O)NO)cc2)C1` [Tubastatin A], the “concentration of LY-294002 needed to synergise” value in the series on HCT116 cells [1] is 0.1 µM. Besides, the “combination effect with inhibitors of the PI3K/AKT/mTOR pathway” value with HCT116 cells [1] (HCT116, 72 hours) is given as “synergises as well”. In addition, in the series on HCT116 cells [5] (24 hours of incubation), the “acetylated form of PTEN” value is on record as “dose dependent increase”. Also, in the series on HCT116 cells [4] (Tubastatin A alone), the P-AKT result is “time dependent increase”.

Regarding `CCN(CC)c1ccc(S(=O)(=O)Nc2ccc(/C=C(C)/C=C/C(=O)NO)cc2)cc1` [HDAC-C1B], in series [6], the “cytotoxic potency relative to HDAC-C1A” value was “approximately 1.5 fold”.

For the compound `CC[C@]1(O)C[C@@H]2CN(CCc3c([nH]c4ccccc34)[C@@](C(=O)OC)(c3cc4c(cc3OC)N(C)[C@H]3[C@@](O)(C(=O)OC)[C@H](OC(C)=O)[C@]5(CC)C=CCN6CC[C@]43[C@@H]65)C2)C1` [vinblastine], the “fold resistance (GI50 ratio) P-gp over-expressing 3T3 vs parental” value at P-gp is given as over 100 fold.

Broadly, the Papp A→B is the apparent permeability from the apical to the basolateral side of a cell layer. Low readings indicate poor permeation, high ones ready permeation. As for `O=C(CCCCCCC(=O)Nc1ccccc1)NO` [SAHA, suberanoyl hydroxamic acid, reference compound], the “concentration of LY-294002 needed to synergise” value with HCT116 cells [1] is “greater than 4 μM”. Further, in the series on HCT116 cells [1] (concentrations below 7.5 μM), the “combination effect with rapamycin at ED50” value was “antagonistic effect”. The Papp A→B in the series “in vitro” was 14 ×10⁻⁶ cm/s. For the same compound, the “effect of GSH on cytotoxicity” value in the series with A2780 cells was “antagonistic effect”. Besides, the “acetyl form of PTEN” value in the series with HCT116 cells [5] (4 h and 24 h, 1 μM and 10 μM) is “no effect”. The “substrate of MRP1” value at MRP1 was “non-substrates”. Also, the “acetylation markers at low concentration and early time point” value in the series with HCT116 cells [7] (1 μM and 4 hours) is “opposite”. The “acetylation of histone H3, H4 and α-tubulin after washout” value with HCT116 cells [7] (treatment 4 hours, then washout) is “lost by 4 h”. The “effect on P-AKT” value with HCT116 cells [4] (10 μM) is recorded as “no effect”.
